Laboratory results taken from ChEMBL document CHEMBL5696442, “Discovery of type II inhibitors of TGFβ-activated kinase 1 (TAK1) and mitogen-activated protein kinase kinase kinase kinase 2 (MAP4K2)” (J Med Chem, 2015).
The source made the active and inactive calls. The rule behind the calls is not given here.

Assays:
[1] = biological target: Calcium/calmodulin-dependent protein kinase type IV (Homo sapiens) (UniProt Q16566); assay: Inhibition of CAMK4 (unknown origin) at 10 uM by Ambit Kinomescan binding assay
[2] = biological target: Myosin light chain kinase 2, skeletal/cardiac muscle (Homo sapiens) (UniProt Q9H1R3); assay: Inhibition of MYLK2 (unknown origin) at 10 uM by Ambit Kinomescan binding assay relative to control
[3] = biological target: Mitogen-activated protein kinase kinase kinase kinase 4 (Homo sapiens, UniProt O95819); assay: Inhibition of ZC1/HGK Lys2 labeling site in human A-375 cells at 5 uM by KiNativ Profiling analysis relative to control; type: cell-based
[4] = biological target: T1, Eukaryotic elongation factor 2 kinase (Homo sapiens) (UniProt O00418); assay: Inhibition of eEF2K ATP labeling site harbouring YIKYNSNSGFVR in human A-375 cells at 0.05 uM by KiNativ Profiling analysis relative to control; type: cell-based
T1 sequence (whole entry): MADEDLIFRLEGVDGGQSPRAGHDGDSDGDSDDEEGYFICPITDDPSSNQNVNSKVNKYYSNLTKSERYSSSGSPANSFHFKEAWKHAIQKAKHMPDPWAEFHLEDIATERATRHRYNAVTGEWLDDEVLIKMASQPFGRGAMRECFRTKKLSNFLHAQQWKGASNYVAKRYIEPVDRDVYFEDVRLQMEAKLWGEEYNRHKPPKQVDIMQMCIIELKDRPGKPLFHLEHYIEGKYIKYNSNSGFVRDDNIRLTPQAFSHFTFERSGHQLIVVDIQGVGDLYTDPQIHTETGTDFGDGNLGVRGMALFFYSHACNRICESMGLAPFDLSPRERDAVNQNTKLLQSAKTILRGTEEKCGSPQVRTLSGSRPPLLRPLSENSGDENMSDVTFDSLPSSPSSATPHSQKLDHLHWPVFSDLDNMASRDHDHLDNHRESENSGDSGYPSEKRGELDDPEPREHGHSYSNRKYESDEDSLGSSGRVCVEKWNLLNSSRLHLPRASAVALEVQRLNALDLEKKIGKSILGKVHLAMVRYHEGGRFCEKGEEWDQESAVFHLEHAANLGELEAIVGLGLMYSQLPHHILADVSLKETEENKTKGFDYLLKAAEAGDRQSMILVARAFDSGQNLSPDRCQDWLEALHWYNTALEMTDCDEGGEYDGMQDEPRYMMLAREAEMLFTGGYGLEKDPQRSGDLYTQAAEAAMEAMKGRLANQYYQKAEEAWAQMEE

[5] = biological target: Tyrosine-protein kinase ABL (Homo sapiens) (UniProt P00519+P42684); assay: Inhibition of ABL1/2 K1 labeling site in human Huh-7 cells at 1 uM by KiNativ Profiling analysis relative to control; type: cell-based
[6] = biological target: Serine/threonine-protein kinase 25 (Homo sapiens) (UniProt O00506); assay: Inhibition of YSK1 ATP labeling site in human Huh-7 cells at 1 uM by KiNativ Profiling analysis relative to control; type: cell-based
[7] = biological target: T2, Mitogen-activated protein kinase kinase kinase 2 (Homo sapiens) (UniProt Q9Y2U5); assay: Inhibition of MAP3K2 Lys2 labeling site in human Huh-7 cell lysate at 1 uM by KiNativ Profiling analysis relative to control; type: subcellular
T2 sequence (whole entry): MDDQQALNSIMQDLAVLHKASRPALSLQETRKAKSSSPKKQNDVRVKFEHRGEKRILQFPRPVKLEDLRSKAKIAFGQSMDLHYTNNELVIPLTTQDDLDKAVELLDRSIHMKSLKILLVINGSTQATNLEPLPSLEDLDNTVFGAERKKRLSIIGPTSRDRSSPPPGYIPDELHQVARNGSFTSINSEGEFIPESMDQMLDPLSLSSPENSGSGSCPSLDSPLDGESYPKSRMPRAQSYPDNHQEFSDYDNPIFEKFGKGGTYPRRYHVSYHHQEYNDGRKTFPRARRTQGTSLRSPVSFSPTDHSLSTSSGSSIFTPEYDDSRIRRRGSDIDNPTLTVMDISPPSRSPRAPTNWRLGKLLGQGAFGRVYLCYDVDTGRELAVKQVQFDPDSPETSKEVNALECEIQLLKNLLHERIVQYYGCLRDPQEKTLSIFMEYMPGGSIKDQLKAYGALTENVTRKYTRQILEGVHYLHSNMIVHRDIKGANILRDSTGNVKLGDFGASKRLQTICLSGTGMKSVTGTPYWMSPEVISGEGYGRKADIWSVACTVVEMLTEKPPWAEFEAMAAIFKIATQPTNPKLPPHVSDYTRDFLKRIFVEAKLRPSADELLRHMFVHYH

[8] = biological target: Microtubule-associated serine/threonine-protein kinase 3 (Homo sapiens) (UniProt O60307); assay: Inhibition of MAST3 Lys2 labeling site in human Huh-7 cell lysate at 1 uM by KiNativ Profiling analysis relative to control; type: subcellular
[9] = biological target: 5'-AMP-activated protein kinase catalytic subunit alpha-1 (Homo sapiens) (UniProt Q13131); assay: Inhibition of AMPKa1 Lys1 labeling site in human Huh-7 cells at 1 uM by KiNativ Profiling analysis relative to control; type: cell-based
[10] = biological target: Mitogen-activated protein kinase 9 (Homo sapiens, UniProt P45984); assay: Inhibition of JNK2 Lys2 labeling site in human Huh-7 cells at 1 uM by KiNativ Profiling analysis relative to control; type: cell-based
[11] = biological target: RAC-gamma serine/threonine-protein kinase (Homo sapiens) (UniProt Q9Y243); assay: Inhibition of AKT3 (unknown origin) at 1 uM by Ambit Kinomescan binding assay relative to control
[12] = biological target: Mitogen-activated protein kinase kinase kinase kinase 3 (Homo sapiens) (UniProt Q8IVH8); assay: Inhibition of MAP4K3 (unknown origin) at 1 uM by Ambit Kinomescan binding assay relative to control
[13] = biological target: STE20-like serine/threonine-protein kinase (Homo sapiens) (UniProt Q9H2G2); assay: Inhibition of SLK (unknown origin) at 1 uM by Ambit Kinomescan binding assay relative to control
[14] = biological target: Non-receptor tyrosine-protein kinase TYK2 (Homo sapiens) (UniProt P29597); assay: Inhibition of TYK2 JH1catalytic domain (unknown origin) at 1 uM by Ambit Kinomescan binding assay relative to control
[15] = biological target: Tyrosine-protein kinase receptor TYRO3 (Homo sapiens) (UniProt Q06418); assay: Inhibition of TYRO3 (unknown origin) at 1 uM by Ambit Kinomescan binding assay relative to control
[16] = biological target: Serine/threonine-protein kinase MARK2 (Homo sapiens) (UniProt Q7KZI7); assay: Inhibition of MARK2 Lys2 labeling site harbouring DLKAENLLLDADMNIK in human A-375 cells at 0.5 uM by KiNativ Profiling analysis relative to control; type: cell-based
[17] = biological target: Cyclin-dependent kinase-like 5 (Homo sapiens) (UniProt O76039); assay: Inhibition of CDKL5 (unknown origin) at 1 uM by Ambit Kinomescan binding assay relative to control; values are per cent of control
Cyclin-dependent kinase-like 5 (Homo sapiens), sequence (O76039 whole entry): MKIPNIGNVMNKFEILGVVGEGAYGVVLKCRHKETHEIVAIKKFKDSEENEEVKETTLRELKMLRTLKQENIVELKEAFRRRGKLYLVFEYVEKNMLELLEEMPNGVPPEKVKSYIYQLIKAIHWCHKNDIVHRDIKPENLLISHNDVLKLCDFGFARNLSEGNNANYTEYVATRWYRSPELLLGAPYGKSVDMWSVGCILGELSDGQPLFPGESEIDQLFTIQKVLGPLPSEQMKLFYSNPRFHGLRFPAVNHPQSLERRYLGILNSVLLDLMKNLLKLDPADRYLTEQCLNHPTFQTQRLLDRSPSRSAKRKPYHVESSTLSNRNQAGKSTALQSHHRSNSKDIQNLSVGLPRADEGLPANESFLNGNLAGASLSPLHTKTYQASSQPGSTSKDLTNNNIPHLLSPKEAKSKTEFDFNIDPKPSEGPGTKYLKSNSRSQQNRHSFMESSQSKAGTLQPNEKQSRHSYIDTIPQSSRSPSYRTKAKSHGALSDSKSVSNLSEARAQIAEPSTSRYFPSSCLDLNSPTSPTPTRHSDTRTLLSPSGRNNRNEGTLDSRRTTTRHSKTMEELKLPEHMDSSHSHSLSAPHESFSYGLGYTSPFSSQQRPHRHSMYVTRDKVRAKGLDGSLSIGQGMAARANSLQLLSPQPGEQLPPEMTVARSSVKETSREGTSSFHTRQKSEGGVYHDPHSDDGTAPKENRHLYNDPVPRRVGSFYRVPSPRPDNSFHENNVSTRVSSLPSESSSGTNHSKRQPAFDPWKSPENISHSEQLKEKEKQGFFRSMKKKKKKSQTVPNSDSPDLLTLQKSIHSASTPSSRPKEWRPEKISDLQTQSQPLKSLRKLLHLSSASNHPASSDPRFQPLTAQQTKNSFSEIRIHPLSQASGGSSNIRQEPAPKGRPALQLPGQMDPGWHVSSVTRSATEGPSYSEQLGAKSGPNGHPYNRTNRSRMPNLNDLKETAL

Serine/threonine-protein kinase MARK2 (Homo sapiens), sequence (Q7KZI7 whole entry): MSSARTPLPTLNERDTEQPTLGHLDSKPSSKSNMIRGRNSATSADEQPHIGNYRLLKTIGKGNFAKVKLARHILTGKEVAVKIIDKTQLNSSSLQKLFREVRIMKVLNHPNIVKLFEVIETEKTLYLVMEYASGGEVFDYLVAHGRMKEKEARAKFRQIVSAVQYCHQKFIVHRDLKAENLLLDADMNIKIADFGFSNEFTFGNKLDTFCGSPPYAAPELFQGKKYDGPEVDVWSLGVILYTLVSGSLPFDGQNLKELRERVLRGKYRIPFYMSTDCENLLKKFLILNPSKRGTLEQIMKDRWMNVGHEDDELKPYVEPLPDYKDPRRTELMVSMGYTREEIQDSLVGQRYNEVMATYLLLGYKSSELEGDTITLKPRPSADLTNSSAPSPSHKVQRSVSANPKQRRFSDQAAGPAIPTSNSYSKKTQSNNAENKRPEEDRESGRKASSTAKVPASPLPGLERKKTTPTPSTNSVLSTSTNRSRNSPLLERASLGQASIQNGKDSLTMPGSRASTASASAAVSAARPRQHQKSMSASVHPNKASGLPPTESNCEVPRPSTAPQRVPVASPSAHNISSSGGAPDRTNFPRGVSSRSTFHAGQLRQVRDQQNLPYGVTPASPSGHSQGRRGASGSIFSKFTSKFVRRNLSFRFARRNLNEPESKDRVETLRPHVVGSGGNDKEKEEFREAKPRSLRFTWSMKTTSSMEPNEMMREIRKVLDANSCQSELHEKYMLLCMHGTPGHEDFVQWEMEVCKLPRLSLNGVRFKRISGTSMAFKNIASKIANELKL
Myosin light chain kinase 2, skeletal/cardiac muscle (Homo sapiens), sequence (Q9H1R3 whole entry): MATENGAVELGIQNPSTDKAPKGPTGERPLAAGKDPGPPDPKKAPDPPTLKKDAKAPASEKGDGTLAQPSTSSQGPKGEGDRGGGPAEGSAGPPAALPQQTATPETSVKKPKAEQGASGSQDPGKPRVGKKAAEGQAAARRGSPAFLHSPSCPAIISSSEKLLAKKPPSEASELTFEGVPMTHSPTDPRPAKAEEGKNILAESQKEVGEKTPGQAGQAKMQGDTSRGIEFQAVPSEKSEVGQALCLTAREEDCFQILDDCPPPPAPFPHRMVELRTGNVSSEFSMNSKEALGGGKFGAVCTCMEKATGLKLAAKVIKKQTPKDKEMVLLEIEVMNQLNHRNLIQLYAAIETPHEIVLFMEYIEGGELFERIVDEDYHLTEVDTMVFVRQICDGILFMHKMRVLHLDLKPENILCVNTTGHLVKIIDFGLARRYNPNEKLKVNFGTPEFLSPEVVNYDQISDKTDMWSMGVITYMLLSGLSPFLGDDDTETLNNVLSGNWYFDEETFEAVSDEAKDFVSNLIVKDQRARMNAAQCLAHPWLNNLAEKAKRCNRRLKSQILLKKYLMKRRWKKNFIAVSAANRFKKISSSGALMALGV
STE20-like serine/threonine-protein kinase (Homo sapiens), sequence (Q9H2G2 whole entry, looked up, the tested form may be a part): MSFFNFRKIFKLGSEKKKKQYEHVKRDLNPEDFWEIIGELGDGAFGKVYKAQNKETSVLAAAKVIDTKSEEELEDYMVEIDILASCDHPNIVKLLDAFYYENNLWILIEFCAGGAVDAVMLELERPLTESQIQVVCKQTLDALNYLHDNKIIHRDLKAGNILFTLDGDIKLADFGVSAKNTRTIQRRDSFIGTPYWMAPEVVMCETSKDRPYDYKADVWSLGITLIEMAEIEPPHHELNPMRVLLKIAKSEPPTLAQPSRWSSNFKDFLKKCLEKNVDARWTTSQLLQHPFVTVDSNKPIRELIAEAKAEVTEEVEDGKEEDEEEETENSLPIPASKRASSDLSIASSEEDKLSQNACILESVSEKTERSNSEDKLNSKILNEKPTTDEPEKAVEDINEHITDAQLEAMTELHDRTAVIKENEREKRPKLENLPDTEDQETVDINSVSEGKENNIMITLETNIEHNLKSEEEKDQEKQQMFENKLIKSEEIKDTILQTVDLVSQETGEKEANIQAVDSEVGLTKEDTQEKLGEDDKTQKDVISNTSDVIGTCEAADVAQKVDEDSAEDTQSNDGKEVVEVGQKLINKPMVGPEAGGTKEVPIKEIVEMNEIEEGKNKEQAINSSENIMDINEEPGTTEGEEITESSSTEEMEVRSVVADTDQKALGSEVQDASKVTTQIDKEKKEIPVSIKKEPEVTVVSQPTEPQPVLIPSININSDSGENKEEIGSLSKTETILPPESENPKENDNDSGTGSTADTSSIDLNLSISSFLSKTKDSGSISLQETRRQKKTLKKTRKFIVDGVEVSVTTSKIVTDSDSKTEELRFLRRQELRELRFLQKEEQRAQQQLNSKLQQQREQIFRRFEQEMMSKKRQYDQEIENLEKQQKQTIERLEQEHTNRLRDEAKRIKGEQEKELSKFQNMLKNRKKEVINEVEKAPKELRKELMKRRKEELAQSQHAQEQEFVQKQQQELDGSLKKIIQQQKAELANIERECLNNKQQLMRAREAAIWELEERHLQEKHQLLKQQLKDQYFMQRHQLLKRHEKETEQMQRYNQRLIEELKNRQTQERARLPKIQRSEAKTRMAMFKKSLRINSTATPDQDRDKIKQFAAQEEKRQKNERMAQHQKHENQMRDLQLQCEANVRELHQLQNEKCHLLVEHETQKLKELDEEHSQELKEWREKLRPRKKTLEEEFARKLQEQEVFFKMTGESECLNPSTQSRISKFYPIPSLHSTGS
Mitogen-activated protein kinase kinase kinase kinase 3 (Homo sapiens), sequence (Q8IVH8 whole entry): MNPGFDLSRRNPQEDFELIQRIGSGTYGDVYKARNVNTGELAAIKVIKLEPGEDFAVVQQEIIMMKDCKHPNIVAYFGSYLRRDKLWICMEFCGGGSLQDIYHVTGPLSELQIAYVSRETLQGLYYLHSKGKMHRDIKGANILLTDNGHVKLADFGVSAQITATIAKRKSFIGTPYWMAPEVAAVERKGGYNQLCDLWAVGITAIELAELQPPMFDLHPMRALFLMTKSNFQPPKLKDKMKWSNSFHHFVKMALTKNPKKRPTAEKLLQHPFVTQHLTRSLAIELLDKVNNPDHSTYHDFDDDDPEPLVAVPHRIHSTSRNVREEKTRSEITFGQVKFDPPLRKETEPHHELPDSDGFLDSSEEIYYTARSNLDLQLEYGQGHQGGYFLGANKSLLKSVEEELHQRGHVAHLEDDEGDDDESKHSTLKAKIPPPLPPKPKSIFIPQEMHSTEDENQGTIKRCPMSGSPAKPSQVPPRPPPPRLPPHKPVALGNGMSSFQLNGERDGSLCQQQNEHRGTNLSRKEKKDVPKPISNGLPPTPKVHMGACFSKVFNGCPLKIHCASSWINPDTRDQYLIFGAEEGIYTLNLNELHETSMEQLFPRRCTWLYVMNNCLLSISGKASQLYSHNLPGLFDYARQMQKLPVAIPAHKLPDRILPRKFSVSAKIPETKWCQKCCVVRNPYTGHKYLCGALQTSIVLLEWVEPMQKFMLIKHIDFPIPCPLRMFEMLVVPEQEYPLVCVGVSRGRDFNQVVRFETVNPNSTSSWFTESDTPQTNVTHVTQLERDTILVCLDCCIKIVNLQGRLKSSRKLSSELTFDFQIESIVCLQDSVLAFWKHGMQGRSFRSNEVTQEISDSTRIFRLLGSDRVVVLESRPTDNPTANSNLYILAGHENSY
Calcium/calmodulin-dependent protein kinase type IV (Homo sapiens), sequence (Q16566 whole entry): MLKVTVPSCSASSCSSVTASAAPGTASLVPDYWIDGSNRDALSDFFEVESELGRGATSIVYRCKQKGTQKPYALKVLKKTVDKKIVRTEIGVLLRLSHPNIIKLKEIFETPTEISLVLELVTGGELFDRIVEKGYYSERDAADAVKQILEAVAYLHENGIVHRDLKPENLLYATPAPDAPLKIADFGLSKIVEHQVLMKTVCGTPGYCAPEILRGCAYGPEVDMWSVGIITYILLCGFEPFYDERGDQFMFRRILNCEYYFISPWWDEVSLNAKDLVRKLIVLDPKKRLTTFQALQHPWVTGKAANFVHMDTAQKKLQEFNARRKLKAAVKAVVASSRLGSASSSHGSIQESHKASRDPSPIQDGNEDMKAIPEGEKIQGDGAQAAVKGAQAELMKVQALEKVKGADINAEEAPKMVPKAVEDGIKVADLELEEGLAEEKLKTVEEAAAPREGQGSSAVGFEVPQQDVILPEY

CCN1CCN(Cc2ccc(NC(=O)c3ccc(C)c(Oc4ccnc5[nH]ccc45)c3)cc2C(F)(F)F)CC1
inhibition [1]: inactive
inhibition [2]: 8.4%
inhibition [3]: 92.7%
inhibition [4]: 12.7%
inhibition [5]: 16.4%
inhibition [6]: 18%

CNc1cc(Oc2cc(C(=O)Nc3cc(N4CCN(C)CC4)cc(C(F)(F)F)c3)ccc2C)ncn1
inhibition [7]: 1.9%
inhibition [8]: -0.3%
inhibition [9]: -7.5%
inhibition [10]: 14.5%

CCN1CCN(Cc2ccc(NC(=O)c3ccc(C)c(/C=C/c4cnc5[nH]ccc5c4OC)c3)cc2C(F)(F)F)CC1
inhibition [11]: 100%
inhibition [12]: 20%
inhibition [13]: 13%
inhibition [14]: 70%
inhibition [15]: 76%
inhibition [16]: 9.1%
residual activity [17]: 100%
